Data: the supplement of paper PMC10307832

Legend:
Assay in all cases: relative viability (nuclei count vs DMSO), 5 days (fraction); higher = more cells survive
[1] = compound: CN[C@@H]1C[C@H]2O[C@@](C)([C@@H]1OC)n1c3ccccc3c3c4c(c5c6ccccc6n2c5c31)C(=O)NC4 [Staurosporine] + CC(=O)c1c(C)c2cnc(Nc3ccc(N4CCNCC4)cn3)nc2n(C2CCCC2)c1=O [Palbociclib] (partner 0.5 µM)
Summary of the method: (§1)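 For relative viability, nuclei counts in treated wells were divided by those in vehicle wells. Lung cancer cell lines had been pin-tool dosed in 1536-well plates the day after seeding and cultured for 5 days, then fixed and stained in one step (final 0.05% Triton X-100, 1% formaldehyde, 1 ug/ml Hoechst) and imaged at 4×. Doses were one drug alone or a fixed anchor-drug dose plus five library-drug doses (not always all listed) in √10 steps, and values are duplicate-plate medians.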

[2] = compound: O=c1[nH]cc(F)c(=O)[nH]1 [5-Fluorouracil] + CC(=O)c1c(C)c2cnc(Nc3ccc(N4CCNCC4)cn3)nc2n(C2CCCC2)c1=O [Palbociclib] (partner 0.5 µM)
Summary of the method: as §1

[3] = compound: CC1=C(CC(=O)O)c2cc(F)ccc2/C1=C\c1ccc([S+](C)[O-])cc1 [Sulindac] + CC1(C)CCC(c2ccc(Cl)cc2)=C(CN2CCN(c3ccc(C(=O)NS(=O)(=O)c4ccc(N[C@H](CCN5CCOCC5)CSc5ccccc5)c(S(=O)(=O)C(F)(F)F)c4)cc3)CC2)C1 [Navitoclax] (partner 0.5 µM)
Summary of the method: as §1

[4] = compound: CC1=C(CC(=O)O)c2cc(F)ccc2/C1=C\c1ccc([S+](C)[O-])cc1 [Sulindac] + NC(=O)Nc1cc(-c2cccc(F)c2)sc1C(=O)N[C@H]1CCCNC1 [AZD7762] (partner 0.2 µM)
Summary of the method: as §1

Q: Which relative viability ([1]; first compound 0.005 µM) does the source give for NCI-H1792 here?
A: 0.614

Q: What about the relative viability ([1]; first compound 0.01581 µM) of the same cell line?
A: 0.577

Q: And the relative viability ([1]; first compound 0.05 µM)?
A: 0.323

Q: What about the relative viability ([1]; first compound 0.1581 µM) of the same cell line?
A: 0.274

Q: What about the relative viability ([1]; first compound 0.5 µM) of the same cell line?
A: 0.26

Q: And the relative viability ([2]; first compound 0.02 µM)?
A: 0.688

Q: And the relative viability ([2]; first compound 0.2 µM)?
A: 0.696

Q: What about the relative viability ([2]; first compound 0.6325 µM) of the same cell line?
A: 0.352

Q: And the relative viability ([2]; first compound 2 µM)?
A: 0.29

Q: And the relative viability ([3]; first compound 0.08 µM)?
A: 0.796

Q: What about the relative viability ([3]; first compound 0.253 µM) of the same cell line?
A: 0.682

Q: And the relative viability ([3]; first compound 2.53 µM)?
A: 0.681

Q: And the relative viability ([3]; first compound 8 µM)?
A: 0.691

Q: And the relative viability ([4]; first compound 0.08 µM)?
A: 0.98

Q: And the relative viability ([4]; first compound 0.253 µM)?
A: 0.647

Q: And the relative viability ([4]; first compound 2.53 µM)?
A: 0.766

Q: What about the relative viability ([4]; first compound 8 µM) of the same cell line?
A: 0.703

Q: How did the relative viability ([1]; first compound 0.005 µM) turn out when NCI-H2085 was run?
A: 0.442

Q: What about the relative viability ([1]; first compound 0.01581 µM) of the same cell line?
A: 0.359

Q: And the relative viability ([1]; first compound 0.05 µM)?
A: 0.355

Q: And the relative viability ([1]; first compound 0.1581 µM)?
A: 0.301

Q: And the relative viability ([1]; first compound 0.5 µM)?
A: 0.303

Q: What about the relative viability ([2]; first compound 0.02 µM) of the same cell line?
A: 0.434

Q: And the relative viability ([2]; first compound 0.2 µM)?
A: 0.504

Q: And the relative viability ([2]; first compound 0.6325 µM)?
A: 0.473

Q: What about the relative viability ([2]; first compound 2 µM) of the same cell line?
A: 0.5

Q: What about the relative viability ([3]; first compound 0.08 µM) of the same cell line?
A: 1.18

Q: And the relative viability ([3]; first compound 0.253 µM)?
A: 1.21

Q: And the relative viability ([3]; first compound 0.8 µM)?
A: 0.979

Q: And the relative viability ([3]; first compound 2.53 µM)?
A: 1.18

Q: And the relative viability ([3]; first compound 8 µM)?
A: 1.14

Q: And the relative viability ([4]; first compound 0.08 µM)?
A: 0.904

Q: What about the relative viability ([4]; first compound 0.253 µM) of the same cell line?
A: 0.988

Q: And the relative viability ([4]; first compound 0.8 µM)?
A: 0.834

Q: What about the relative viability ([4]; first compound 2.53 µM) of the same cell line?
A: 0.945

Q: And the relative viability ([4]; first compound 8 µM)?
A: 0.95

Q: What does the source list for LC-2-ad?
A: relative viability ([1]; first compound 0.005 µM): 0.537; relative viability ([1]; first compound 0.01581 µM): 0.328; relative viability ([1]; first compound 0.05 µM): 0.279; relative viability ([1]; first compound 0.1581 µM): 0.168; relative viability ([1]; first compound 0.5 µM): 0.109; relative viability ([2]; first compound 0.02 µM): 0.519; relative viability ([2]; first compound 0.2 µM): 0.523; relative viability ([2]; first compound 0.6325 µM): 0.467; relative viability ([2]; first compound 2 µM): 0.325; relative viability ([3]; first compound 0.08 µM): 0.384; relative viability ([3]; first compound 0.253 µM): 0.495; relative viability ([3]; first compound 0.8 µM): 0.548; relative viability ([3]; first compound 2.53 µM): 0.434; relative viability ([3]; first compound 8 µM): 0.564; relative viability ([4]; first compound 0.08 µM): 0.972; relative viability ([4]; first compound 0.253 µM): 0.906; relative viability ([4]; first compound 0.8 µM): 0.701; relative viability ([4]; first compound 2.53 µM): 0.815; relative viability ([4]; first compound 8 µM): 0.944

Q: What does the source list for 201T?
A: relative viability ([1]; first compound 0.005 µM): 0.362; relative viability ([1]; first compound 0.05 µM): 0.329; relative viability ([1]; first compound 0.1581 µM): 0.274; relative viability ([1]; first compound 0.5 µM): 0.285; relative viability ([2]; first compound 0.02 µM): 0.376; relative viability ([2]; first compound 0.2 µM): 0.347; relative viability ([2]; first compound 0.6325 µM): 0.294; relative viability ([2]; first compound 2 µM): 0.256; relative viability ([3]; first compound 0.08 µM): 1.19; relative viability ([3]; first compound 0.253 µM): 1.15; relative viability ([3]; first compound 0.8 µM): 1.27; relative viability ([3]; first compound 2.53 µM): 1.16; relative viability ([3]; first compound 8 µM): 1.23; relative viability ([4]; first compound 0.08 µM): 0.647; relative viability ([4]; first compound 0.253 µM): 0.628; relative viability ([4]; first compound 0.8 µM): 0.868; relative viability ([4]; first compound 2.53 µM): 0.661; relative viability ([4]; first compound 8 µM): 0.596

Q: Which relative viability ([1]; first compound 0.005 µM) does the source give for NCI-H1395 here?
A: 0.53

Q: What about the relative viability ([1]; first compound 0.01581 µM) of the same cell line?
A: 0.438

Q: What about the relative viability ([1]; first compound 0.05 µM) of the same cell line?
A: 0.406

Q: And the relative viability ([1]; first compound 0.1581 µM)?
A: 0.393

Q: And the relative viability ([1]; first compound 0.5 µM)?
A: 0.306

Q: What about the relative viability ([2]; first compound 0.02 µM) of the same cell line?
A: 0.538

Q: And the relative viability ([2]; first compound 0.2 µM)?
A: 0.692

Q: And the relative viability ([2]; first compound 0.6325 µM)?
A: 0.641

Q: What about the relative viability ([2]; first compound 2 µM) of the same cell line?
A: 0.609

Q: And the relative viability ([3]; first compound 0.08 µM)?
A: 1.2

Q: What about the relative viability ([3]; first compound 0.253 µM) of the same cell line?
A: 1.17

Q: What about the relative viability ([3]; first compound 0.8 µM) of the same cell line?
A: 1.1

Q: And the relative viability ([3]; first compound 2.53 µM)?
A: 1.19

Q: What about the relative viability ([3]; first compound 8 µM) of the same cell line?
A: 1.2

Q: And the relative viability ([4]; first compound 0.08 µM)?
A: 0.387

Q: And the relative viability ([4]; first compound 0.253 µM)?
A: 0.378

Q: And the relative viability ([4]; first compound 0.8 µM)?
A: 0.4

Q: What about the relative viability ([4]; first compound 2.53 µM) of the same cell line?
A: 0.401

Q: What about the relative viability ([4]; first compound 8 µM) of the same cell line?
A: 0.401

Q: What does the source list for NCI-H23?
A: relative viability ([1]; first compound 0.005 µM): 0.255; relative viability ([1]; first compound 0.01581 µM): 0.253; relative viability ([1]; first compound 0.05 µM): 0.162; relative viability ([1]; first compound 0.1581 µM): 0.147; relative viability ([1]; first compound 0.5 µM): 0.131; relative viability ([2]; first compound 0.02 µM): 0.527; relative viability ([2]; first compound 0.2 µM): 0.551; relative viability ([2]; first compound 0.6325 µM): 0.325; relative viability ([2]; first compound 2 µM): 0.245; relative viability ([3]; first compound 0.08 µM): 0.809; relative viability ([3]; first compound 0.253 µM): 0.84; relative viability ([3]; first compound 0.8 µM): 0.785; relative viability ([3]; first compound 2.53 µM): 0.84; relative viability ([3]; first compound 8 µM): 0.923; relative viability ([4]; first compound 0.08 µM): 0.294; relative viability ([4]; first compound 0.253 µM): 0.22; relative viability ([4]; first compound 0.8 µM): 0.273; relative viability ([4]; first compound 2.53 µM): 0.256; relative viability ([4]; first compound 8 µM): 0.232

Q: LU99A was tested. Which relative viability ([1]; first compound 0.005 µM) did it give?
A: 0.366

Q: What about the relative viability ([1]; first compound 0.01581 µM) of the same cell line?
A: 0.196

Q: What about the relative viability ([1]; first compound 0.05 µM) of the same cell line?
A: 0.196

Q: What about the relative viability ([1]; first compound 0.1581 µM) of the same cell line?
A: 0.211

Q: And the relative viability ([1]; first compound 0.5 µM)?
A: 0.174

Q: And the relative viability ([2]; first compound 0.02 µM)?
A: 0.441

Q: And the relative viability ([2]; first compound 0.2 µM)?
A: 0.419

Q: What about the relative viability ([2]; first compound 0.6325 µM) of the same cell line?
A: 0.361

Q: What about the relative viability ([2]; first compound 2 µM) of the same cell line?
A: 0.257

Q: What about the relative viability ([3]; first compound 0.08 µM) of the same cell line?
A: 0.964

Q: And the relative viability ([3]; first compound 0.253 µM)?
A: 0.781

Q: What about the relative viability ([3]; first compound 0.8 µM) of the same cell line?
A: 0.689

Q: What about the relative viability ([3]; first compound 2.53 µM) of the same cell line?
A: 0.73

Q: And the relative viability ([3]; first compound 8 µM)?
A: 0.878

Q: What about the relative viability ([4]; first compound 0.08 µM) of the same cell line?
A: 0.324

Q: What about the relative viability ([4]; first compound 0.253 µM) of the same cell line?
A: 0.467

Q: What about the relative viability ([4]; first compound 0.8 µM) of the same cell line?
A: 0.433

Q: What about the relative viability ([4]; first compound 2.53 µM) of the same cell line?
A: 0.327

Q: And the relative viability ([4]; first compound 8 µM)?
A: 0.404

Q: How did the relative viability ([1]; first compound 0.005 µM) turn out when NCI-H1437 was run?
A: 0.27

Q: And the relative viability ([1]; first compound 0.01581 µM)?
A: 0.182

Q: What about the relative viability ([1]; first compound 0.05 µM) of the same cell line?
A: 0.168

Q: What about the relative viability ([1]; first compound 0.1581 µM) of the same cell line?
A: 0.116

Q: And the relative viability ([2]; first compound 0.02 µM)?
A: 0.306

Q: What about the relative viability ([2]; first compound 0.2 µM) of the same cell line?
A: 0.221

Q: What about the relative viability ([2]; first compound 0.6325 µM) of the same cell line?
A: 0.161

Q: What about the relative viability ([2]; first compound 2 µM) of the same cell line?
A: 0.225

Q: And the relative viability ([3]; first compound 0.08 µM)?
A: 1.28

Q: What about the relative viability ([3]; first compound 0.253 µM) of the same cell line?
A: 1.1

Q: And the relative viability ([3]; first compound 0.8 µM)?
A: 1.05

Q: What about the relative viability ([3]; first compound 2.53 µM) of the same cell line?
A: 1.1

Q: What about the relative viability ([3]; first compound 8 µM) of the same cell line?
A: 1.38

Q: What about the relative viability ([4]; first compound 0.08 µM) of the same cell line?
A: 1.18

Q: What about the relative viability ([4]; first compound 0.253 µM) of the same cell line?
A: 1.12

Q: And the relative viability ([4]; first compound 0.8 µM)?
A: 1.1

Q: What about the relative viability ([4]; first compound 2.53 µM) of the same cell line?
A: 1.14

Q: What about the relative viability ([4]; first compound 8 µM) of the same cell line?
A: 1.11
